As a reminder, the IC50 is the concentration needed to halve the response being measured.

The text below walks through data of patent US9771376B2 (GENENTECH, INC., priority 2000, dated 2017).

Sequence of human NaV1.7 (Q15858 other isoform, or with tags, fused parts or gaps): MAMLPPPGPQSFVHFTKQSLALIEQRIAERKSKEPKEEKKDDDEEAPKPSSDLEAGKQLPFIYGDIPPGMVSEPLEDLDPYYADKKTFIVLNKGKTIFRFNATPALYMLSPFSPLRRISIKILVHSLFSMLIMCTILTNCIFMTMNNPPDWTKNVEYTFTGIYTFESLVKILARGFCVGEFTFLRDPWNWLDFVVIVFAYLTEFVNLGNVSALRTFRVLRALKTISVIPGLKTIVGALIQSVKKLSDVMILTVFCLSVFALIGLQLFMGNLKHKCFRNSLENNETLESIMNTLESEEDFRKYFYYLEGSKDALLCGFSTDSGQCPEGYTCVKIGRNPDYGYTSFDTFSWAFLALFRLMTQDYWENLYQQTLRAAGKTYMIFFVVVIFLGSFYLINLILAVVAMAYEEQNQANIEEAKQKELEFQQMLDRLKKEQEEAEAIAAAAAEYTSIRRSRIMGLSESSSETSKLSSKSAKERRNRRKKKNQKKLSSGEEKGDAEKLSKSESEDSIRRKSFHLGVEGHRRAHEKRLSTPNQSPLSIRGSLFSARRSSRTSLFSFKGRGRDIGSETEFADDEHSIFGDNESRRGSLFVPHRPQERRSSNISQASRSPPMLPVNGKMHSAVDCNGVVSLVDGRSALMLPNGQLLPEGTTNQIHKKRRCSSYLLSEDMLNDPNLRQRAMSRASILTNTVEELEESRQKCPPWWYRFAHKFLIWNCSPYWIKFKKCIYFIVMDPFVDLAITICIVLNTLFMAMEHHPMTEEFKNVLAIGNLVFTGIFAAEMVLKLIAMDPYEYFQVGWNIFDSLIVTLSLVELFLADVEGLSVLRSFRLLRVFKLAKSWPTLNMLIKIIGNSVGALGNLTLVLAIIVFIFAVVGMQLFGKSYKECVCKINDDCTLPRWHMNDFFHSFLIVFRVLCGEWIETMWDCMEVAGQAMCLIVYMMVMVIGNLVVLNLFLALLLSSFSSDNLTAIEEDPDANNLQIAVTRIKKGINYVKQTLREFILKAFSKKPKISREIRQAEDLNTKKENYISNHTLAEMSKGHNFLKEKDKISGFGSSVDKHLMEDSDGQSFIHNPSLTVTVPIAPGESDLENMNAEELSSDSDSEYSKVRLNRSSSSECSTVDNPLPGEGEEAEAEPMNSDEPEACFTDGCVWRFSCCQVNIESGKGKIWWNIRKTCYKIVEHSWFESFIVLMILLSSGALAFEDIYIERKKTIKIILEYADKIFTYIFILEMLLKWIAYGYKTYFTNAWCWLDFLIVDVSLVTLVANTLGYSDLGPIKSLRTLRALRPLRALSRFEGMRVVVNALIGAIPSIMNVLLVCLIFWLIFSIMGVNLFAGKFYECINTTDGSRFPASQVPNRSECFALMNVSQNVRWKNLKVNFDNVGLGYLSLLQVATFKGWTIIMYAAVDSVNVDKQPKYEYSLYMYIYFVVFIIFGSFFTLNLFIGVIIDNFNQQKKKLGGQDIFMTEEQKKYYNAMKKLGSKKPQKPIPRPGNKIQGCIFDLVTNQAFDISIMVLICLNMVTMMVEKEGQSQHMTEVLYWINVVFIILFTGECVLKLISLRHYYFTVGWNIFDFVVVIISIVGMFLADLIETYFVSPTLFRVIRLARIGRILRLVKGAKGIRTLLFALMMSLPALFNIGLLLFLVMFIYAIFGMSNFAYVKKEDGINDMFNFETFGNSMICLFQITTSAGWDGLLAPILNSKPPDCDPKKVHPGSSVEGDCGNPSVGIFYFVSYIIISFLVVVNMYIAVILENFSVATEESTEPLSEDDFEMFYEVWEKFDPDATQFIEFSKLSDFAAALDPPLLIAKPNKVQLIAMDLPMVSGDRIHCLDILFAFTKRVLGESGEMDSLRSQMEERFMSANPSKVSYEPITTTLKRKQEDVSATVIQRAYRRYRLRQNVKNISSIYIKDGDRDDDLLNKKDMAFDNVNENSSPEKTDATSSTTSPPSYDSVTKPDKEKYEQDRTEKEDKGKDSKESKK
Sequence of human NaV1.7 (Q07699 19-218 partner): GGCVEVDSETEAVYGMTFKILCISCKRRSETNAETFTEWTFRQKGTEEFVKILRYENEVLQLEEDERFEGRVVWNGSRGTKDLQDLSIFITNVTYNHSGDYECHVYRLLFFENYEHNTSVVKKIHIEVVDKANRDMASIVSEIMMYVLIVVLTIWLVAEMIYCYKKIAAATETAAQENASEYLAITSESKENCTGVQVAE

One series has as its target human NaV1.7 (Homo sapiens (Human), UniProt Q15858). The experiment in a line: Patch voltage clamp electrophysiology assay, NaV1.7. Conditions: inactivated state; HEK-293 cells stably expressing NaV1.7 with β1 subunit; held at −60 mV; read-out: Human 1.7 EP (IC50 μM). It is filed as cell-based.
With “5-Chloro-2-fluoro-N-(methylsulfonyl)-4-((2,2,3,3-tetramethylcyclopropyl)-methoxy)benzamide [Example 34]”, the half-maximal inhibitory concentration (IC50) was 0.0658 µM.

For the molecule “5-chloro-2-fluoro-N-(methylsulfonyl)-4-((1-(trifluoromethyl)cyclopropyl)-methoxy)benzamide [Example 36]”, the IC50 is 0.0077 µM.

Take “4-(1-(adamantan-1-yl)ethoxy)-5-chloro-2-fluoro-N-(methylsulfonyl)benzamide [Example 19]”: the IC50 is 0.0386 µM.

As for `CN(C)S(=O)(=O)NC(=O)c1cc(Cl)c(OCC23CC4CC(CC(F)(C4)C2)C3)cc1F` [Example 86, 5-chloro-N-(N N-dimethylsulfamoyl)-2-fluoro-4-((3-fluoroadamantan-1-yl)methoxy)benzamide], the IC50 stood at 0.00131 µM.

Consider “4-(2-(adamantan-1-yl)ethoxy)-3-chloro-N-(methylsulfonyl)benzamide [Example 13]”, for which the IC50 stood at 0.123 µM.

In the case of `CN(C)S(=O)(=O)NC(=O)c1cc(Cl)c(OC2CCC3(CCCCC3)CC2)cc1F` [Example 79], the IC50 stood at 0.0854 µM.

Regarding `CC1(C)C2CCC1(C)C(Oc1cc(F)c(C(=O)NS(C)(=O)=O)cc1Cl)C2` (stereo not drawn) [Example 15, 5-chloro-2-fluoro-N-(methylsulfonyl)-4-((exo-1,7,7-trimethylbicyclo[2.2.1]heptan-2-yl)oxy)benzamide], the IC50 was found to be 0.171 µM.

For “4-(bicyclo[2.2.1]heptan-2-yloxy)-5-chloro-2-fluoro-N-(methylsulfonyl)-benzamide [Example 145]”, the IC50 was 0.0036 µM.

Consider “5-chloro-4-(3-cyclohexylpropoxy)-N-(N,N-dimethylsulfamoyl)-2-fluorobenzamide [Example 82]”, for which the IC50 is 0.0416 µM.

For `CS(=O)(=O)NC(=O)c1cc(Cl)c(OC2[C@@H]3CC4C[C@H]2CC(Cl)(C4)C3)cc1F` (stereo partly drawn) [Example 25, 5-chloro-4-(((1R,2r,3S,5s,7s)-5-chloroadamantan-2-yl)oxy)-2-fluoro-N-(methylsulfonyl)benzamide], the IC50 was 0.027 µM.

For “4-(adamantan-1-ylmethoxy)-5-chloro-N-(N,N-dimethylsulfamoyl)-2-fluorobenzamide [Example 28]”, the IC50 worked out at 2.25 µM.

In another series the target is human NaV1.5 (Homo sapiens (Human), UniProt Q14524). The experiment in a line: Patch voltage clamp electrophysiology assay, NaV1.5. Conditions: read-out: Human 1.5 EP IC50 μM; inactivated state; HEK-293 cells stably expressing NaV1.5 with β1 subunit; held at −60 mV.
As to “4-(adamantan-1-ylmethoxy)-5-chloro-2-fluoro-N-(methylsulfonyl)benzamide [Example 8]”, the IC50 was 1.07 µM.
